In ChEMBL document CHEMBL1152017, “Peptide-binding antibiotics: A solid-phase assay for screening libraries of vancomycin mimics for selective d-Ala-d-Ala binding” (Bioorg Med Chem Lett, 1997):

Test: The compound was tested for binding constant against d-Ala-d-Ala termini on bacterial cell surface

KA [mM⁻¹] | Structure (SMILES)
1.3 | C[C@@H](NC(=O)[C@@H](C)NC(=O)CNS(=O)(=O)c1cccc2c(N(C)C)cccc12)C(=O)O
1.1 | C[C@H](NC(=O)[C@H](C)NC(=O)CNS(=O)(=O)c1cccc2c(N(C)C)cccc12)C(=O)O
< 0.02 | C[C@H](NC(=O)CNS(=O)(=O)c1cccc2c(N(C)C)cccc12)C(=O)O[C@H](C)C(=O)O
16 | C[C@H](NC(=O)CNS(=O)(=O)c1cccc2c(N(C)C)cccc12)C(=O)N[C@H](C)C(=O)O
